#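 Tested at 5 concentrations; 48 h exposure; 96-well plates; endpoints linearly interpolated, else capped at highest concentration. Definition used: TGI = concentration required for complete inhibition of growth.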
# Columns and labels:
# Assay in all cases: NCI-60 cell line screen, 48 h
# OVCAR-5 ovarian = system: OVCAR-5 ovarian
# RXF 393 renal = system: RXF 393 renal
# CCRF-CEM leukemia = system: CCRF-CEM leukemia
# MOLT-4 leukemia = system: MOLT-4 leukemia
# PC-3 prostate = system: PC-3 prostate
# MDA-MB-435 = system: MDA-MB-435
# HT29 colon = system: HT29 colon
# SN12C renal = system: SN12C renal
# HS 578T breast = system: HS 578T breast
# UACC-62 melanoma = system: UACC-62 melanoma
# A549 NSCLC = system: A549 NSCLC
Compound,TGI (OVCAR-5 ovarian),TGI (RXF 393 renal),TGI (CCRF-CEM leukemia),TGI (MOLT-4 leukemia),TGI (PC-3 prostate),TGI (MDA-MB-435),TGI (HT29 colon),TGI (SN12C renal),TGI (HS 578T breast),TGI (UACC-62 melanoma),TGI (A549 NSCLC)
NC(=S)N/N=C/c1cc(CN2CCOCC2)c(N)cn1,> 100 µM,> 100 µM,> 100 µM,> 100 µM,> 100 µM,> 100 µM,> 100 µM,> 100 µM,> 100 µM,> 100 µM,
CCOC(=O)CCc1c(C(=O)OCC)[nH]c(/C=C2/NC(=O)C(C)=C2CC)c1C,> 100 µM,30.3 µM,,13.1 µM,> 100 µM,19.7 µM,39.9 µM,37.9 µM,95.3 µM,19.7 µM,> 100 µM
N#C/C(=C\c1ccc(Cl)cc1)c1nc2ccccc2c(=O)[nH]1,> 100 µM,> 100 µM,> 100 µM,> 100 µM,> 100 µM,> 100 µM,> 100 µM,> 100 µM,60.6 µM,> 100 µM,> 100 µM
CCCCCCN(C(=O)Oc1ccccc1)C(C#N)c1ccccc1 (stereo not given),> 100 µM,> 100 µM,> 100 µM,> 100 µM,> 100 µM,> 100 µM,> 100 µM,> 100 µM,> 100 µM,> 100 µM,> 100 µM
Nc1ncc2c(n1)-c1ccccc1OC2NC1CC1 (stereo not given),> 100 µM,> 100 µM,> 100 µM,> 100 µM,> 100 µM,> 100 µM,> 100 µM,> 100 µM,> 100 µM,> 100 µM,> 100 µM
COc1ccc2oc(=N)c(C(N)=S)cc2c1,> 100 µM,32.8 µM,> 100 µM,> 100 µM,93.7 µM,> 100 µM,> 100 µM,82.8 µM,58.6 µM,34 µM,> 100 µM
COc1ccc(NC(=O)C2=C(SC)C(C#N)C(=O)N=C2N)cc1 (stereo not given),> 100 µM,> 100 µM,> 100 µM,> 100 µM,> 100 µM,> 100 µM,> 100 µM,> 100 µM,> 100 µM,> 100 µM,> 100 µM
COC(=O)n1c(=O)nc2c3c(ncn21)Oc1c(c(-c2ccccc2)nn1-c1ccccc1)C3c1ccc(Cl)cc1 (stereo not given),2.58 µM,2.98 µM,3.27 µM,,2.94 µM,3.02 µM,2.9 µM,3.1 µM,2.62 µM,3.6 µM,3.15 µM
N#Cc1c(-c2ccccc2)c(C#N)c(=O)n(NS(=O)(=O)c2ccccc2)c1O,> 100 µM,> 100 µM,> 100 µM,> 100 µM,> 100 µM,> 100 µM,> 100 µM,> 100 µM,> 100 µM,> 100 µM,> 100 µM
Cc1sc2ncnc(NCCc3ccccc3)c2c1C,35.8 µM,34.1 µM,49.3 µM,63.8 µM,40.3 µM,34.6 µM,45.3 µM,28.3 µM,63.6 µM,24.6 µM,83 µM
C/C(C=O)=N\Nc1cc(C)c2ccccc2n1,34.3 µM,43.1 µM,29.3 µM,36.8 µM,33 µM,38.1 µM,30.8 µM,33 µM,46.2 µM,28.2 µM,43 µM
CC(=O)Nc1c(C)cc(OCC(=O)O)cc1C,> 100 µM,> 100 µM,> 100 µM,,> 100 µM,> 100 µM,> 100 µM,> 100 µM,> 100 µM,> 100 µM,> 100 µM
C[N+](C)(C)CC1Cc2ccccc2C1=O (stereo not given),> 10 µM,> 10 µM,4.22 µM,4.95 µM,> 10 µM,> 10 µM,> 10 µM,> 10 µM,> 10 µM,> 10 µM,> 10 µM
CC1C2CC(C(C3C(=O)C4CC3C(C)(C)C4C)C2=O)C1(C)C (stereo not given),> 100 µM,> 100 µM,> 100 µM,> 100 µM,> 100 µM,> 100 µM,> 100 µM,> 100 µM,> 100 µM,> 100 µM,> 100 µM
CN(C(=O)C1=CCCCCC1)c1ccccc1I,> 100 µM,> 100 µM,> 100 µM,> 100 µM,> 100 µM,> 100 µM,,> 100 µM,35.5 µM,> 100 µM,> 100 µM
CC[C@@]1(O)C(=O)OCc2c1c(Cl)c1n(c2=O)Cc2cc3ccccc3nc2-1,85.8 µM,15.1 µM,> 29 µM,19.3 µM,> 100 µM,> 100 µM,> 100 µM,> 61.8 µM,> 100 µM,3.38 µM,> 63.2 µM
CCOP(=O)(CS(C)=O)O[C@@H]1C[C@H](C)CC[C@H]1C(C)C (stereo not given in full),15.2 µM,7.83 µM,11.5 µM,> 100 µM,19.7 µM,11.9 µM,> 34.1 µM,6.12 µM,11.3 µM,7.08 µM,17.7 µM
COc1c(O)cc(/C=C/c2cc(O)cc3c2[C@@]2(C(=O)O3)c3c(O)cc(O)cc3OC2c2cccc(O)c2)cc1O (stereo not given in full),,> 100 µM,> 100 µM,11 µM,> 100 µM,> 100 µM,81.8 µM,64.3 µM,> 100 µM,72 µM,> 100 µM
CCOC(=O)[C@H]1C[C@@H](C(=O)c2ccccc2)N2N=C(c3ccc(Br)cc3)C=C[C@H]12,> 100 µM,> 100 µM,,> 100 µM,> 100 µM,> 100 µM,,> 100 µM,> 100 µM,> 100 µM,> 100 µM
CCOC(=O)CNC(=O)C(CSC(=O)N(O)c1ccc(Br)cc1)NC(=O)CCC(N)C(=O)OCC (stereo not given),> 50 µM,> 50 µM,> 50 µM,> 50 µM,> 50 µM,> 50 µM,> 50 µM,> 50 µM,> 50 µM,> 50 µM,> 50 µM

Compound,TGI (OVCAR-5 ovarian),TGI (RXF 393 renal),TGI (CCRF-CEM leukemia),TGI (MOLT-4 leukemia),TGI (PC-3 prostate),TGI (MDA-MB-435),TGI (HT29 colon),TGI (SN12C renal),TGI (HS 578T breast),TGI (UACC-62 melanoma),TGI (A549 NSCLC)
CN1CC=C(OP(=O)(NCc2ccccc2)N(CCCl)CCCl)CC1 (stereo not given),> 100 µM,> 100 µM,> 100 µM,> 100 µM,> 100 µM,> 100 µM,> 100 µM,> 100 µM,> 100 µM,> 100 µM,
O=C1C(NCCc2cc(Br)c(O)c(Br)c2)=CC(=O)c2ncccc21,20.2 µM,29.1 µM,23.5 µM,24.1 µM,> 100 µM,3.09 µM,> 30.6 µM,14.7 µM,9.2 µM,3.51 µM,9.89 µM
CSC1=N/C(=C\c2cccs2)C(=O)N1CN1CCCCC1,> 100 µM,,> 100 µM,> 100 µM,> 100 µM,> 100 µM,> 100 µM,> 100 µM,> 100 µM,> 100 µM,> 100 µM
CCOc1ccc(C2c3[nH]c4ccccc4c3CCN2C(=O)c2cccs2)cc1 (stereo not given),> 100 µM,> 100 µM,> 100 µM,> 100 µM,> 100 µM,> 100 µM,> 100 µM,> 100 µM,> 100 µM,> 100 µM,> 100 µM
CCCCCCCCCC(=O)OCC1(CO)C/C(=C/CC(C(C)C)C(C)C)C(=O)O1 (stereo not given),> 100 µM,> 100 µM,73.1 µM,54 µM,> 100 µM,> 100 µM,> 100 µM,> 100 µM,> 100 µM,> 100 µM,> 100 µM
CCCCCCC(N)(CCCCCC)C(=O)Nn1c(C)ccc1C,> 100 µM,> 100 µM,> 100 µM,> 100 µM,> 100 µM,> 100 µM,> 100 µM,> 100 µM,> 100 µM,> 100 µM,65.3 µM
Cc1ccc(-c2c(C#N)c(-c3ccc(N(C)C)cc3)c(C#N)c(=O)n2NS(=O)(=O)c2ccccc2)cc1,> 100 µM,68.1 µM,96.3 µM,52.8 µM,> 100 µM,> 100 µM,> 100 µM,> 100 µM,> 100 µM,> 100 µM,> 100 µM
COc1ccc(CSCc2cc(OC)c(OC)c(OC)c2)cc1,> 100 µM,> 100 µM,> 100 µM,> 100 µM,> 31.6 µM,> 81.3 µM,> 100 µM,> 100 µM,> 100 µM,> 100 µM,> 100 µM
CCC(=O)N(c1ccccc1)C(C)CN1CCC(O)(c2ccccc2)CC1 (stereo not given),> 100 µM,> 100 µM,> 100 µM,> 100 µM,> 100 µM,> 100 µM,> 100 µM,> 100 µM,> 100 µM,> 100 µM,> 100 µM
CCN(CC)c1ccc(/C=C/C2=NN(c3cccc(S(=O)(=O)O)c3)C3(C2)C(Cl)C(=O)N3c2nc3ccccc3s2)cc1 (stereo not given),58.7 µM,21.1 µM,4.47 µM,13.9 µM,25.1 µM,17 µM,33.9 µM,29 µM,> 90.2 µM,20.6 µM,28.7 µM
O=C(O)CCC(=O)Nc1ccc2c(c1)S(=O)(=O)N(CC(=O)O)C2=O,> 100 µM,,> 100 µM,> 100 µM,> 100 µM,> 100 µM,> 100 µM,> 100 µM,> 100 µM,> 100 µM,> 100 µM
O=c1cc(-c2ccc(O)c(O)c2)oc2cc(OC3OC(CO)C(O)C(O)C3O)cc(O)c12 (stereo not given),> 100 µM,> 100 µM,,> 100 µM,> 100 µM,> 100 µM,> 100 µM,> 100 µM,> 100 µM,> 100 µM,> 100 µM
COc1ccc(NC=O)c(C(O)CCNC(C)=O)c1 (stereo not given),> 100 µM,> 100 µM,> 100 µM,> 100 µM,> 100 µM,> 100 µM,> 100 µM,> 100 µM,> 100 µM,> 100 µM,> 100 µM
Cc1c(-c2ccccc2)c(-c2ccc(OCCN(C)C)cc2)n2ccccc12,28.8 µM,25.7 µM,15.5 µM,15.8 µM,20.3 µM,11.4 µM,3.46 µM,25.4 µM,20.9 µM,3.66 µM,29 µM
COc1ccc(/C=C/C(=O)NCC(NC(=O)/C=C/c2ccc(OC)c(OC)c2)C(=O)O)cc1OC (stereo not given),> 100 µM,> 100 µM,> 100 µM,> 100 µM,> 100 µM,> 100 µM,> 100 µM,> 100 µM,> 100 µM,> 100 µM,> 100 µM
CC(=O)c1c2c(cc3c1CC1(Cc4cc5c(cc4C1)CCC5)C3)CCC2,> 100 µM,> 100 µM,> 100 µM,> 100 µM,> 100 µM,> 100 µM,> 100 µM,,> 100 µM,,> 100 µM
Cc1ccc2c(c1)C(C1Cc3c(C)cccc3C1=O)OC2=O (stereo not given),> 100 µM,> 100 µM,> 100 µM,> 100 µM,> 100 µM,> 100 µM,> 100 µM,> 100 µM,> 100 µM,> 100 µM,> 100 µM
Cn1c(=O)nc2n(CCO)c(-c3ccccc3)c(-c3ccccc3)nc-2c1=O,> 100 µM,> 100 µM,> 100 µM,> 100 µM,> 100 µM,> 100 µM,> 100 µM,> 100 µM,> 100 µM,> 100 µM,> 100 µM
O=C(/C=C/c1ccc(O)c(O)c1)NC(CO)C(=O)O (stereo not given),> 100 µM,> 100 µM,> 100 µM,> 100 µM,> 100 µM,> 100 µM,> 100 µM,> 100 µM,> 100 µM,> 100 µM,> 100 µM
CN(CCO)CC(=O)CC(O)(C(F)(F)F)C(F)(F)F,> 100 µM,46.8 µM,91.9 µM,> 100 µM,82.8 µM,> 100 µM,> 100 µM,,58.7 µM,> 100 µM,> 100 µM

# Source: PubChem BioAssay (NCI)
